Experimental data as given in patent US11109593B2, “Isoxazolin-5-one derivative and herbicide containing same as active ingredient” (HOKKO CHEMICAL INDUSTRY CO., LTD., priority 2017, dated 2021).

Key:
Format in all cases: in vivo
[1] = system: Amaranthus viridis; assay: Test Example 3: herbicidal effect test by treatment of dry field farming soil (one day after seeding); conditions: 120 g/10a active ingredient, evaluated 14 days after treatment
Method in brief: (§1)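 Alluvial dry-field soil in pots, top 1 cm mixed with 20 seeds per weed species. One day after seeding, the water-diluted emulsion was sprayed onto the soil surface at 100 L per 10 ares (120 g active ingredient per 10 ares). Duplicate pots; herbicidal rate (%) from plant dry weight versus untreated, 14 days after treatment.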

[2] = system: Echinochloa crus-galli; assay: as above; conditions: 120 g/10a active ingredient, evaluated 14 days after treatment
Method in brief: as §1

[3] = system: Chenopodium album; assay: as above; conditions: 120 g/10a active ingredient, evaluated 14 days after treatment
Method in brief: as §1

[4] = system: southern crabgrass; assay: as above; conditions: 120 g/10a active ingredient, evaluated 14 days after treatment
Method in brief: as §1

[5] = system: broad leaf weeds (Lindernia pyxidaria and Monochoria vaginalis); assay: Test Example 1: herbicidal effect test by treatment of rice paddy soil (immediately after seeding); conditions: 120 g/10a active ingredient, dry weight vs untreated area, 14 days after treatment
Method in brief: (§2)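 Pre-emergence paddy water application, 120 g a.i./10 ares, applied immediately post-seeding into ~3 cm flood; glasshouse; duplicate pots; dry weight at 14 d → % inhibition = (1 − treated/untreated) × 100.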

[6] = system: Scirpus juncoides; assay: as above; conditions: 120 g/10a active ingredient, dry weight vs untreated area, 14 days after treatment
Method in brief: as §2

[7] = system: Echinochloa crus-galli; assay: as above; conditions: 120 g/10a active ingredient, dry weight vs untreated area, 14 days after treatment
Method in brief: as §2

[8] = system: Amaranthus viridis; assay: Test Example 4: herbicidal effect test by treatment of leave and stem in dry field farming (seven days after seeding); conditions: 120 g/10a active ingredient; emulsion sprayed seven days after seeding; evaluated 14 days after treatment
Method in brief: (§3)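 Weeds were seeded at 20 seeds per species into the top 1 cm of alluvial upland soil in pots, then sprayed 7 days after seeding with water-diluted emulsifiable concentrate at 100 L/10 a, giving 120 g active ingredient/10 a. Duplicate pots; herbicidal rate (%) was 14 days post-treatment, from dry weight versus untreated.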

[9] = system: Echinochloa crus-galli; assay: as above; conditions: 120 g/10a active ingredient; emulsion sprayed seven days after seeding; evaluated 14 days after treatment
Method in brief: as §3

[10] = system: Chenopodium album; assay: as above; conditions: 120 g/10a active ingredient; emulsion sprayed seven days after seeding; evaluated 14 days after treatment
Method in brief: as §3

[11] = system: southern crabgrass; assay: as above; conditions: 120 g/10a active ingredient; emulsion sprayed seven days after seeding; evaluated 14 days after treatment
Method in brief: as §3

[12] = system: broad leaf weeds (Lindernia pyxidaria and Monochoria vaginalis); assay: Test Example 2: herbicidal effect test by treatment during growing period in paddy rice cultivation (seven days after seeding); conditions: 120 g/10a active ingredient, assessed 14 days after treatment, dry weight vs untreated area
Method in brief: (§4)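 Seeds sown 0–1 cm deep in puddled, fertilised paddy soil with about 3 cm standing water in a glass greenhouse. Diluted emulsion dropped into the water seven days after seeding at 120 g active ingredient per 10 ares. Herbicidal rate (%) from mean dry weight vs untreated, duplicate, 14 days after treatment.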

[13] = system: Scirpus juncoides; assay: as above; conditions: 120 g/10a active ingredient, assessed 14 days after treatment, dry weight vs untreated area
Method in brief: as §4

[14] = system: Echinochloa crus-galli; assay: as above; conditions: 120 g/10a active ingredient, assessed 14 days after treatment, dry weight vs untreated area
Method in brief: as §4

CC(=O)N(c1ccccc1Cc1c(C)n(C(C)c2ccccc2)oc1=O)S(=O)(=O)C(F)(F)F (centres unmarked) [Compound 1-310]
herbicidal rate, Amaranthus viridis [1]: 90%
herbicidal rate, Echinochloa crus-galli [2]: 90%
herbicidal rate, Chenopodium album [3]: 90%
herbicidal rate, southern crabgrass [4]: 90%
Herbicidal rate (%) Lindernia pyxidaria [5]: 90%
Herbicidal rate (%) Monochoria vaginalis [5]: 90%
Herbicidal rate (%) Scirpus juncoides [6]: 90%
Herbicidal rate (%) Echinochloa crus-galli [7]: 90%
herbicidal effect (herbicidal rate), Amaranthus viridis [8]: 40%
herbicidal effect (herbicidal rate), Echinochloa crus-galli [9]: 90%
herbicidal effect (herbicidal rate), Chenopodium album [10]: 40%
herbicidal effect (herbicidal rate), southern crabgrass [11]: 90%
Herbicidal rate (%) Lindernia pyxidaria [12]: 90%
Herbicidal rate (%) Monochoria vaginalis [12]: 90%
Herbicidal rate (%) Scirpus juncoides [13]: 90%
Herbicidal rate (%) Echinochloa crus-galli [14]: 90%

CCC(=O)N(c1ccccc1Cc1c(C)n(C(C)(C)C)oc1=O)S(=O)(=O)C(F)(F)F [Compound 1-315]
herbicidal rate, Amaranthus viridis [1]: 90%
herbicidal rate, Echinochloa crus-galli [2]: 90%
herbicidal rate, Chenopodium album [3]: 90%
herbicidal rate, southern crabgrass [4]: 90%
Herbicidal rate (%) Lindernia pyxidaria [5]: 90%
Herbicidal rate (%) Monochoria vaginalis [5]: 90%
Herbicidal rate (%) Scirpus juncoides [6]: 90%
Herbicidal rate (%) Echinochloa crus-galli [7]: 90%
herbicidal effect (herbicidal rate), Amaranthus viridis [8]: 40%
herbicidal effect (herbicidal rate), Echinochloa crus-galli [9]: 90%
herbicidal effect (herbicidal rate), Chenopodium album [10]: 40%
herbicidal effect (herbicidal rate), southern crabgrass [11]: 90%
Herbicidal rate (%) Lindernia pyxidaria [12]: 90%
Herbicidal rate (%) Monochoria vaginalis [12]: 90%
Herbicidal rate (%) Scirpus juncoides [13]: 90%
Herbicidal rate (%) Echinochloa crus-galli [14]: 90%

CCC(=O)N(c1ccccc1Cc1c(C)n(C(C)CC)oc1=O)S(=O)(=O)C(F)(F)F (centres unmarked) [Compound 1-316]
herbicidal rate, Amaranthus viridis [1]: 90%
herbicidal rate, Echinochloa crus-galli [2]: 90%
herbicidal rate, Chenopodium album [3]: 90%
herbicidal rate, southern crabgrass [4]: 90%
Herbicidal rate (%) Lindernia pyxidaria [5]: 90%
Herbicidal rate (%) Monochoria vaginalis [5]: 90%
Herbicidal rate (%) Scirpus juncoides [6]: 90%
Herbicidal rate (%) Echinochloa crus-galli [7]: 90%
herbicidal effect (herbicidal rate), Amaranthus viridis [8]: 40%
herbicidal effect (herbicidal rate), Echinochloa crus-galli [9]: 90%
herbicidal effect (herbicidal rate), Chenopodium album [10]: 40%
herbicidal effect (herbicidal rate), southern crabgrass [11]: 90%
Herbicidal rate (%) Lindernia pyxidaria [12]: 90%
Herbicidal rate (%) Monochoria vaginalis [12]: 90%
Herbicidal rate (%) Scirpus juncoides [13]: 90%
Herbicidal rate (%) Echinochloa crus-galli [14]: 90%

CCC(=O)N(c1ccccc1Cc1c(C)n(CC(C)(C)C)oc1=O)S(=O)(=O)C(F)(F)F [Compound 1-318]
herbicidal rate, Amaranthus viridis [1]: 90%
herbicidal rate, Echinochloa crus-galli [2]: 90%
herbicidal rate, Chenopodium album [3]: 90%
herbicidal rate, southern crabgrass [4]: 90%
Herbicidal rate (%) Lindernia pyxidaria [5]: 90%
Herbicidal rate (%) Monochoria vaginalis [5]: 90%
Herbicidal rate (%) Scirpus juncoides [6]: 90%
Herbicidal rate (%) Echinochloa crus-galli [7]: 90%
herbicidal effect (herbicidal rate), Amaranthus viridis [8]: 40%
herbicidal effect (herbicidal rate), Echinochloa crus-galli [9]: 90%
herbicidal effect (herbicidal rate), Chenopodium album [10]: 40%
herbicidal effect (herbicidal rate), southern crabgrass [11]: 90%
Herbicidal rate (%) Lindernia pyxidaria [12]: 90%
Herbicidal rate (%) Monochoria vaginalis [12]: 90%
Herbicidal rate (%) Scirpus juncoides [13]: 90%
Herbicidal rate (%) Echinochloa crus-galli [14]: 90%

CCC(=O)N(c1ccccc1Cc1c(C)n(C(C)COC)oc1=O)S(=O)(=O)C(F)(F)F (centres unmarked) [Compound 1-319]
herbicidal rate, Amaranthus viridis [1]: 90%
herbicidal rate, Echinochloa crus-galli [2]: 90%
herbicidal rate, Chenopodium album [3]: 90%
herbicidal rate, southern crabgrass [4]: 90%
Herbicidal rate (%) Lindernia pyxidaria [5]: 90%
Herbicidal rate (%) Monochoria vaginalis [5]: 90%
Herbicidal rate (%) Scirpus juncoides [6]: 90%
Herbicidal rate (%) Echinochloa crus-galli [7]: 90%
herbicidal effect (herbicidal rate), Amaranthus viridis [8]: 40%
herbicidal effect (herbicidal rate), Echinochloa crus-galli [9]: 90%
herbicidal effect (herbicidal rate), Chenopodium album [10]: 40%
herbicidal effect (herbicidal rate), southern crabgrass [11]: 90%
Herbicidal rate (%) Lindernia pyxidaria [12]: 90%
Herbicidal rate (%) Monochoria vaginalis [12]: 90%
Herbicidal rate (%) Scirpus juncoides [13]: 90%
Herbicidal rate (%) Echinochloa crus-galli [14]: 90%

CCC(=O)N(c1ccccc1Cc1c(C)n(CCSC)oc1=O)S(=O)(=O)C(F)(F)F [Compound 1-320]
herbicidal rate, Amaranthus viridis [1]: 90%
herbicidal rate, Echinochloa crus-galli [2]: 90%
herbicidal rate, Chenopodium album [3]: 90%
herbicidal rate, southern crabgrass [4]: 90%
Herbicidal rate (%) Lindernia pyxidaria [5]: 90%
Herbicidal rate (%) Monochoria vaginalis [5]: 90%
Herbicidal rate (%) Scirpus juncoides [6]: 90%
Herbicidal rate (%) Echinochloa crus-galli [7]: 90%
herbicidal effect (herbicidal rate), Amaranthus viridis [8]: 40%
herbicidal effect (herbicidal rate), Echinochloa crus-galli [9]: 90%
herbicidal effect (herbicidal rate), Chenopodium album [10]: 40%
herbicidal effect (herbicidal rate), southern crabgrass [11]: 90%
Herbicidal rate (%) Lindernia pyxidaria [12]: 90%
Herbicidal rate (%) Monochoria vaginalis [12]: 90%
Herbicidal rate (%) Scirpus juncoides [13]: 90%
Herbicidal rate (%) Echinochloa crus-galli [14]: 90%

CCC(=O)N(c1ccccc1Cc1c(C)n(C(C)c2ccccc2)oc1=O)S(=O)(=O)C(F)(F)F (centres unmarked) [Compound 1-321]
herbicidal rate, Amaranthus viridis [1]: 90%
herbicidal rate, Echinochloa crus-galli [2]: 90%
herbicidal rate, Chenopodium album [3]: 90%
herbicidal rate, southern crabgrass [4]: 90%
Herbicidal rate (%) Lindernia pyxidaria [5]: 90%
Herbicidal rate (%) Monochoria vaginalis [5]: 90%
Herbicidal rate (%) Scirpus juncoides [6]: 90%
Herbicidal rate (%) Echinochloa crus-galli [7]: 90%
herbicidal effect (herbicidal rate), Amaranthus viridis [8]: 40%
herbicidal effect (herbicidal rate), Echinochloa crus-galli [9]: 90%
herbicidal effect (herbicidal rate), Chenopodium album [10]: 40%
herbicidal effect (herbicidal rate), southern crabgrass [11]: 90%
Herbicidal rate (%) Lindernia pyxidaria [12]: 90%
Herbicidal rate (%) Monochoria vaginalis [12]: 90%
Herbicidal rate (%) Scirpus juncoides [13]: 90%
Herbicidal rate (%) Echinochloa crus-galli [14]: 90%

Cc1c(Cc2ccccc2N(C(=O)C(C)C)S(=O)(=O)C(F)(F)F)c(=O)on1C(C)(C)C [Compound 1-329]
herbicidal rate, Amaranthus viridis [1]: 90%
herbicidal rate, Echinochloa crus-galli [2]: 90%
herbicidal rate, Chenopodium album [3]: 90%
herbicidal rate, southern crabgrass [4]: 90%
Herbicidal rate (%) Lindernia pyxidaria [5]: 90%
Herbicidal rate (%) Monochoria vaginalis [5]: 90%
Herbicidal rate (%) Scirpus juncoides [6]: 90%
Herbicidal rate (%) Echinochloa crus-galli [7]: 90%
herbicidal effect (herbicidal rate), Amaranthus viridis [8]: 40%
herbicidal effect (herbicidal rate), Echinochloa crus-galli [9]: 90%
herbicidal effect (herbicidal rate), Chenopodium album [10]: 40%
herbicidal effect (herbicidal rate), southern crabgrass [11]: 90%
Herbicidal rate (%) Lindernia pyxidaria [12]: 90%
Herbicidal rate (%) Monochoria vaginalis [12]: 90%
Herbicidal rate (%) Scirpus juncoides [13]: 90%
Herbicidal rate (%) Echinochloa crus-galli [14]: 90%
